Laboratory results from patent US20260262643A1, “HERBICIDAL BENZOXAZINES” (FMC CORPORATION, priority 2022, published 2026).

Key:
blackgrass [1] = experiment: Test C preemergence; assay type: in vivo, Alopecurus myosuroides
How it was run: (§1)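 Greenhouse herbicide screen, 10-day duration. Test chemicals in solvent/surfactant blend were sprayed onto soil at sowing (pre) or onto 2–10 cm seedlings at one to two leaves (post); injury scored visually against controls, 0 no effect to 100 complete control.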

pigweed, palmer [2] = experiment: Test C postemergence; assay type: in vivo, Amaranthus palmeri; conditions: 10 days, 0 to 100 scale (0 no effect, 100 complete control)
How it was run: as §1

corn [3] = experiment: Test C postemergence; assay type: in vivo, Zea mays; conditions: 10 days, 0 to 100 scale (0 no effect, 100 complete control)
How it was run: as §1

wheat [4] = experiment: Test C postemergence; assay type: in vivo, Triticum aestivum; conditions: 10 days, 0 to 100 scale (0 no effect, 100 complete control)
How it was run: as §1

corn [5] = experiment: Test C preemergence; assay type: in vivo, Zea mays
How it was run: as §1

green foxtail [6] = experiment: Test C preemergence; assay type: in vivo, Setaria viridis
How it was run: as §1

soybean [7] = experiment: Test C postemergence; assay type: in vivo, Glycine max; conditions: 10 days, 0 to 100 scale (0 no effect, 100 complete control)
How it was run: as §1

pigweed, palmer [8] = experiment: Test C preemergence; assay type: in vivo, Amaranthus palmeri
How it was run: as §1

kochia [9] = experiment: Test C preemergence; assay type: in vivo, Bassia scoparia
How it was run: as §1

ryegrass, Italian [10] = experiment: Test C postemergence; assay type: in vivo, Lolium multiflorum; conditions: 10 days, 0 to 100 scale (0 no effect, 100 complete control)
How it was run: as §1

wheat [11] = experiment: Test C preemergence; assay type: in vivo, Triticum aestivum
How it was run: as §1

sedge, umbrella = experiment: Test D flooded paddy test; assay type: in vivo, Cyperus difformis; conditions: 250 g ai/ha, applied to paddy water, visual rating after 13 to 14 days, scale 0 to 100 (0 no effect, 100 complete control)
How it was run: (§2)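 Compounds go straight into paddy water over 2-leaf plants in pots flooded to 3 cm. Greenhouse holding lasts 13 to 14 days. Injury is scored by eye against controls from 0 (none) to 100 (complete control).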

ryegrass, Italian [12] = experiment: Test C preemergence; assay type: in vivo, Lolium multiflorum
How it was run: as §1

ragweed [13] = experiment: Test C postemergence; assay type: in vivo, Ambrosia artemisiifolia; conditions: 10 days, 0 to 100 scale (0 no effect, 100 complete control)
How it was run: as §1

oat, wild [14] = experiment: Test C postemergence; assay type: in vivo, Avena fatua; conditions: 10 days, 0 to 100 scale (0 no effect, 100 complete control)
How it was run: as §1

blackgrass [15] = experiment: Test C postemergence; assay type: in vivo, Alopecurus myosuroides; conditions: 10 days, 0 to 100 scale (0 no effect, 100 complete control)
How it was run: as §1

soybean [16] = experiment: Test C preemergence; assay type: in vivo, Glycine max
How it was run: as §1

green foxtail [17] = experiment: Test C postemergence; assay type: in vivo, Setaria viridis; conditions: 10 days, 0 to 100 scale (0 no effect, 100 complete control)
How it was run: as §1

barnyardgrass [18] = experiment: Test C preemergence; assay type: in vivo, Echinochloa crusgalli
How it was run: as §1

barnyardgrass [19] = experiment: Test D flooded paddy test; assay type: in vivo, Echinochloa crus-galli; conditions: 250 g ai/ha, applied to paddy water, visual rating after 13 to 14 days, scale 0 to 100 (0 no effect, 100 complete control)
How it was run: as §2

horseweed = experiment: Test C postemergence; assay type: in vivo, Erigeron canadensis; conditions: 10 days, 0 to 100 scale (0 no effect, 100 complete control)
How it was run: as §1

rice = experiment: Test D flooded paddy test; assay type: in vivo, Oryza sativa; conditions: 250 g ai/ha, applied to paddy water, visual rating after 13 to 14 days, scale 0 to 100 (0 no effect, 100 complete control)
How it was run: as §2

ragweed [20] = experiment: Test C preemergence; assay type: in vivo, Ambrosia artemisiifolia
How it was run: as §1

kochia [21] = experiment: Test C postemergence; assay type: in vivo, Bassia scoparia; conditions: 10 days, 0 to 100 scale (0 no effect, 100 complete control)
How it was run: as §1

barnyardgrass [22] = experiment: Test C postemergence; assay type: in vivo, Echinochloa crusgalli; conditions: 10 days, 0 to 100 scale (0 no effect, 100 complete control)
How it was run: as §1

ducksalad = experiment: Test D flooded paddy test; assay type: in vivo, Heteranthera limosa; conditions: 250 g ai/ha, applied to paddy water, visual rating after 13 to 14 days, scale 0 to 100 (0 no effect, 100 complete control)
How it was run: as §2

oat, wild [23] = experiment: Test C preemergence; assay type: in vivo, Avena fatua
How it was run: as §1

galium = experiment: Test C postemergence; assay type: in vivo, Galium aparine; conditions: 10 days, 0 to 100 scale (0 no effect, 100 complete control)
How it was run: as §1

[24] = 500 g ai/ha, preemergence, 0 to 100 scale (0 no effect, 100 complete control)
[25] = Preemergence, 125 g ai/ha, 0 to 100 scale, 0 no effect, 100 complete control

Compound: CNc1ncn(-c2cccc(C(=O)N3C[C@H](C)Oc4c(C)cccc43)c2)n1 [Compound 337]
- Blackgrass plant response rating (blackgrass [1]; [24]): 50
- Plant response rating, Blackgrass (blackgrass [1]; [25]): 20
- Plant response rating, Pigweed, Palmer (pigweed, palmer [2]; 500 g ai/ha, postemergence): 70
- Plant response rating, Pigweed, Palmer (pigweed, palmer [2]; Postemergence, 125 g ai/ha): 20
- Plant response rating, Corn (corn [3]; 500 g ai/ha, postemergence): 60
- Plant response rating, Corn (corn [3]; Postemergence, 125 g ai/ha): 10
- Plant response rating, Wheat (wheat [4]; 500 g ai/ha, postemergence): 20
- Plant response rating, Wheat (wheat [4]; Postemergence, 125 g ai/ha): 10
- Corn plant response rating (corn [5]; [24]): 40
- Plant response rating, Corn (corn [5]; [25]): 0
- Foxtail, Green plant response rating (green foxtail [6]; [24]): 100
- Plant response rating, Foxtail, Green (green foxtail [6]; [25]): 90
- Plant response rating, Soybean (soybean [7]; 500 g ai/ha, postemergence): 100
- Plant response rating, Soybean (soybean [7]; Postemergence, 125 g ai/ha): 90
- Pigweed, Palmer plant response rating (pigweed, palmer [8]; [24]): 100
- Plant response rating, Pigweed, Palmer (pigweed, palmer [8]; [25]): 0
- Kochia plant response rating (kochia [9]; [24]): 80
- Plant response rating, Kochia (kochia [9]; [25]): 0
- Plant response rating, Ryegrass, Italian (ryegrass, Italian [10]; 500 g ai/ha, postemergence): 70
- Plant response rating, Ryegrass, Italian (ryegrass, Italian [10]; Postemergence, 125 g ai/ha): 20
- Wheat plant response rating (wheat [11]; [24]): 10
- Plant response rating, Wheat (wheat [11]; [25]): 0
- Plant response rating, Sedge, Umbrella (Flood) (sedge, umbrella): 0
- Ryegrass, Italian plant response rating (ryegrass, Italian [12]; [24]): 90
- Plant response rating, Ryegrass, Italian (ryegrass, Italian [12]; [25]): 50
- Plant response rating, Ragweed (ragweed [13]; 500 g ai/ha, postemergence): 60
- Plant response rating, Ragweed (ragweed [13]; Postemergence, 125 g ai/ha): 20
- Plant response rating, Oat, Wild (oat, wild [14]; 500 g ai/ha, postemergence): 30
- Plant response rating, Oat, Wild (oat, wild [14]; Postemergence, 125 g ai/ha): 10
- Plant response rating, Blackgrass (blackgrass [15]; 500 g ai/ha, postemergence): 90
- Plant response rating, Blackgrass (blackgrass [15]; Postemergence, 125 g ai/ha): 40
- Soybean plant response rating (soybean [16]; [24]): 40
- Plant response rating, Soybean (soybean [16]; [25]): 0
- Plant response rating, Foxtail, Green (green foxtail [17]; 500 g ai/ha, postemergence): 40
- Plant response rating, Foxtail, Green (green foxtail [17]; Postemergence, 125 g ai/ha): 30
- Barnyardgrass plant response rating (barnyardgrass [18]; [24]): 90
- Plant response rating, Barnyardgrass (barnyardgrass [18]; [25]): 30
- Plant response rating, Barnyardgrass (Flood) (barnyardgrass [19]): 0
- Plant response rating, Horseweed (horseweed; 500 g ai/ha, postemergence): 20
- Plant response rating, Horseweed (horseweed; Postemergence, 125 g ai/ha): 0
- Plant response rating, Rice (Flood) (rice): 0
- Ragweed plant response rating (ragweed [20]; [24]): 50
- Plant response rating, Ragweed (ragweed [20]; [25]): 30
- Plant response rating, Kochia (kochia [21]; 500 g ai/ha, postemergence): 70
- Plant response rating, Kochia (kochia [21]; Postemergence, 125 g ai/ha): 50
- Plant response rating, Barnyardgrass (barnyardgrass [22]; 500 g ai/ha, postemergence): 60
- Plant response rating, Barnyardgrass (barnyardgrass [22]; Postemergence, 125 g ai/ha): 10
- Plant response rating, Ducksalad (Flood) (ducksalad): 0
- Oat, Wild plant response rating (oat, wild [23]; [24]): 20
- Plant response rating, Oat, Wild (oat, wild [23]; [25]): 0
- Plant response rating, Galium (galium; 500 g ai/ha, postemergence): 90
- Plant response rating, Galium (galium; Postemergence, 125 g ai/ha): 40
